Publication PMC10763615, “Identification and engineering of potent cyclic peptides with selective or promiscuous binding through biochemical profiling and bioinformatic data analysis” (RSC Chemical Biology, 2023)
Where two headings read alike, the source gives them in different places. Positions of bridges follow the written chain, without caps; N, C: chain ends. Residues, ends and D or L forms follow the SMILES beside them.

How the values were obtained:
Type in all cases: binding
[1] = target: T1, FGF-R4 ECD (Homo sapiens, UniProt P22455); assay: single concentration BLI of crude peptides; settings: read-out: KD (4)
T1 construct: DNA constructs for the extracellular domain (ECD) of human FGF-; HPC4 (C); made in house; host or cells: HEK 293-6E
T1 sequence (P22455 22-369 limits assumed): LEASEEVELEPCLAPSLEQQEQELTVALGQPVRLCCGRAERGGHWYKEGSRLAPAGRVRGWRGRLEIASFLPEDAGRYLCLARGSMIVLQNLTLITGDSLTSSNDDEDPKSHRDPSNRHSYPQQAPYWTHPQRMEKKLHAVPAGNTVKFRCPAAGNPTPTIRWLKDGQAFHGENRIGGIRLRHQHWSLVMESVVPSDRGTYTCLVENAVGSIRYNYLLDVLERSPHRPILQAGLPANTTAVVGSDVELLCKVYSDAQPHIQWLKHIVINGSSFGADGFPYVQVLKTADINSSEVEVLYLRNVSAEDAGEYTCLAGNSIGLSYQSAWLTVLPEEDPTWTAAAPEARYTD
Outline: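 BLI, streptavidin sensors loaded with biotinylated receptor ECD. Single-point: ~1 μM crude peptide, PBS pH7.4/0.05% Tween-20/0.01% BSA; association then dissociation in buffer. KD corrected for UPLC-CAD-determined concentration.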

[2] = target: T2, FGF-R1C ECD (Homo sapiens, UniProt P11362); assay: biochemical; design: DNA constructs for the extracellular domain (ECD) of human FGF-; HPC4 (C); made in house; host or cells: HEK 293-6E
T2 sequence (P11362 22-376 limits assumed): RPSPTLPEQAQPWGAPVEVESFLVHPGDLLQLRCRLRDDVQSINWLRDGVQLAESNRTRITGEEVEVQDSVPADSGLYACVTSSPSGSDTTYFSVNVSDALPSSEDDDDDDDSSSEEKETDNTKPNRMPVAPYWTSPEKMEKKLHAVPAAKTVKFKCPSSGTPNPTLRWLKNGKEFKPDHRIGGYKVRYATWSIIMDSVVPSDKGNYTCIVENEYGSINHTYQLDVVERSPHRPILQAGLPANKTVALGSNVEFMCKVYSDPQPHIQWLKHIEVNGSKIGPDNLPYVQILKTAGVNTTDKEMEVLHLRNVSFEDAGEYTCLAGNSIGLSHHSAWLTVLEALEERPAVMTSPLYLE
Outline: (§1)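 Biotinylated FGF-R ECD on streptavidin biosensors was dipped into ~1 μM crude peptide in PBS pH7.4 with 0.05% Tween-20 and 0.01% BSA for association, then into buffer for dissociation, and followed by BLI. Fitted KD values were adjusted for peptide concentration measured by UPLC-CAD.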

[3] = target: T3, FGF-R3C ECD (Homo sapiens, UniProt P22607); assay: biochemical; design: DNA constructs for the extracellular domain (ECD) of human FGF-; HPC4 (C); made in house; host or cells: HEK 293-6E
T3 sequence (P22607 23-375 limits assumed): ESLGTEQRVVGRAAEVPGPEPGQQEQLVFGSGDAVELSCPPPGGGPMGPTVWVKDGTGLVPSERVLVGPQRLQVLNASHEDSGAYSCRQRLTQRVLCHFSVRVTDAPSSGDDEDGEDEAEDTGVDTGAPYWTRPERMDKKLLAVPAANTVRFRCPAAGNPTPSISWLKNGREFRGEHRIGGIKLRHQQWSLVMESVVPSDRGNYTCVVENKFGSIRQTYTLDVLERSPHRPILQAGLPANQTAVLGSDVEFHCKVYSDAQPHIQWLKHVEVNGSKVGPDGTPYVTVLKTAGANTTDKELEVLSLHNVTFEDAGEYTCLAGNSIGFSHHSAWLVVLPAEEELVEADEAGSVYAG
Outline: as §1

[4] = crude T18 selection 1 (1:1:1) peptides, single concentration BLI (Table S4)

Row | Structure (SMILES) | Kd [1, 4] [µM] | Kd [2] [µM] | Kd [3] [µM] | Kd ([1]; crude NNK peptides, single concentration BLI (Table S3)) [µM]
1 | CSCC[C@H](NC(C)=O)C(=O)N[C@H]1CSSC[C@@H](C(=O)NCC(=O)N[C@@H](CO)C(=O)NCC(=O)N[C@@H](CO)C(=O)N[C@@H](CC(=O)O)C(=O)N[C@@H](Cc2ccc(O)cc2)C(=O)N[C@@H](CCCCN)C(=O)N[C@@H](CC(=O)O)C(=O)N[C@@H](CC(=O)O)C(=O)N[C@@H](CC(=O)O)C(=O)N[C@@H](CC(=O)O)C(=O)N[C@@H](CCCCN)C(N)=O)NC(=O)[C@H](CCC(N)=O)NC(=O)[C@H](Cc2c[nH]cn2)NC(=O)[C@H](Cc2c[nH]c3ccccc23)NC(=O)[C@H](CC(C)C)NC(=O)[C@H]([C@@H](C)O)NC(=O)[C@H](CCC(=O)O)NC(=O)[C@H](Cc2ccc(O)cc2)NC(=O)[C@@H]2CCCN2C(=O)[C@H](Cc2c[nH]cn2)NC(=O)[C@H](CCCNC(=N)N)NC(=O)[C@H](Cc2c[nH]cn2)NC(=O)[C@H]([C@@H](C)O)NC1=O (Ac-MCTHRHPYETLWHQCGSGSDYKDDDDK-NH2; disulfide 2-15) | > 10 | > 10 | > 10 | –
2 | CSCC[C@H](NC(C)=O)C(=O)N[C@H]1CSSC[C@@H](C(=O)NCC(=O)N[C@@H](CO)C(=O)NCC(=O)N[C@@H](CO)C(=O)N[C@@H](CCC(=O)O)C(=O)N[C@@H](CCC(=O)O)C(=O)NCC(=O)N[C@@H](CO)C(=O)NCC(=O)N[C@@H](CO)C(=O)N[C@@H](CC(=O)O)C(=O)N[C@@H](Cc2ccc(O)cc2)C(=O)N[C@@H](CCCCN)C(=O)N[C@@H](CC(=O)O)C(=O)N[C@@H](CC(=O)O)C(=O)N[C@@H](CC(=O)O)C(=O)N[C@@H](CC(=O)O)C(=O)N[C@@H](CCCCN)C(N)=O)NC(=O)[C@H](CO)NC(=O)[C@H](Cc2c[nH]cn2)NC(=O)[C@H](Cc2ccccc2)NC(=O)[C@H](CC(C)C)NC(=O)[C@H](CCCNC(=N)N)NC(=O)[C@H](Cc2c[nH]c3ccccc23)NC(=O)[C@H](Cc2ccc(O)cc2)NC(=O)[C@H](Cc2ccc(O)cc2)NC(=O)[C@H](CC(C)C)NC(=O)[C@H](Cc2c[nH]cn2)NC(=O)[C@H](CCCNC(=N)N)NC(=O)[C@H](Cc2c[nH]cn2)NC1=O (Ac-MCHRHLYYWRLFHSCGSGSEEGSGSDYKDDDDK-NH2; disulfide 2-15) | 0.005 | > 10 | > 10 | –
3 | CSCC[C@H](NC(C)=O)C(=O)N[C@H]1CSSC[C@@H](C(=O)NCC(=O)N[C@@H](CO)C(=O)NCC(=O)N[C@@H](CO)C(=O)N[C@@H](CC(=O)O)C(=O)N[C@@H](Cc2ccc(O)cc2)C(=O)N[C@@H](CCCCN)C(=O)N[C@@H](CC(=O)O)C(=O)N[C@@H](CC(=O)O)C(=O)N[C@@H](CC(=O)O)C(=O)N[C@@H](CC(=O)O)C(=O)N[C@@H](CCCCN)C(N)=O)NC(=O)[C@H](CCC(=O)O)NC(=O)[C@H](CCCNC(=N)N)NC(=O)[C@H](CCCNC(=N)N)NC(=O)[C@H](Cc2c[nH]cn2)NC(=O)[C@H](Cc2ccccc2)NC(=O)[C@H](CCC(N)=O)NC(=O)[C@H](CC(C)C)NC(=O)[C@H](Cc2ccc(O)cc2)NC(=O)[C@H](Cc2ccc(O)cc2)NC(=O)[C@H](Cc2c[nH]c3ccccc23)NC(=O)[C@H](CC(C)C)NC1=O (Ac-MCLWYYLQFHRRECGSGSDYKDDDDK-NH2; disulfide 2-14) | 0.005 | 0.021 | > 10 | –
4 | CC[C@H](C)[C@@H]1NC(=O)[C@H](CCCCN)NC(=O)[C@H](Cc2ccc(O)cc2)NC(=O)[C@H](Cc2ccc(O)cc2)NC(=O)[C@H]([C@@H](C)CC)NC(=O)[C@H](CC(C)C)NC(=O)[C@H](Cc2c[nH]cn2)NC(=O)[C@H](CCCNC(=N)N)NC(=O)[C@H](CCCCN)NC(=O)[C@@H](NC(=O)[C@H](CCSC)NC(C)=O)CSSC[C@@H](C(=O)NCC(=O)N[C@@H](CO)C(=O)NCC(=O)N[C@@H](CO)C(=O)N[C@@H](CC(=O)O)C(=O)N[C@@H](Cc2ccc(O)cc2)C(=O)N[C@@H](CCCCN)C(=O)N[C@@H](CC(=O)O)C(=O)N[C@@H](CC(=O)O)C(=O)N[C@@H](CC(=O)O)C(=O)N[C@@H](CC(=O)O)C(=O)N[C@@H](CCCCN)C(N)=O)NC(=O)[C@H](CCCNC(=N)N)NC(=O)[C@H](C)NC1=O (Ac-MCKRHLIYYKIARCGSGSDYKDDDDK-NH2; disulfide 2-14) | 0.001 | > 10 | 1.54 | –
5 | CSCC[C@H](NC(C)=O)C(=O)N[C@H]1CSSC[C@@H](C(=O)NCC(=O)N[C@@H](CO)C(=O)NCC(=O)N[C@@H](CO)C(=O)N[C@@H](CC(=O)O)C(=O)N[C@@H](Cc2ccc(O)cc2)C(=O)N[C@@H](CCCCN)C(=O)N[C@@H](CC(=O)O)C(=O)N[C@@H](CC(=O)O)C(=O)N[C@@H](CC(=O)O)C(=O)N[C@@H](CC(=O)O)C(=O)N[C@@H](CCCCN)C(N)=O)NC(=O)[C@H](Cc2ccccc2)NC(=O)[C@H](C(C)C)NC(=O)[C@H](CCCNC(=N)N)NC(=O)[C@H](Cc2c[nH]c3ccccc23)NC(=O)[C@H](Cc2ccc(O)cc2)NC(=O)[C@H](CCC(N)=O)NC(=O)[C@H](C(C)C)NC(=O)[C@H](Cc2ccc(O)cc2)NC(=O)[C@H](Cc2ccc(O)cc2)NC(=O)[C@@H]2CCCN2C1=O (Ac-MCPYYVQYWRVFCGSGSDYKDDDDK-NH2; disulfide 2-13) | 0.009 | > 10 | > 10 | –
6 | CC[C@H](C)[C@@H]1NC(=O)[C@H](CCCCN)NC(=O)[C@H](Cc2ccc(O)cc2)NC(=O)[C@H](Cc2c[nH]c3ccccc23)NC(=O)[C@H](CC(C)C)NC(=O)[C@H](C(C)C)NC(=O)[C@H]([C@@H](C)O)NC(=O)[C@H](Cc2ccc(O)cc2)NC(=O)[C@H](CC(C)C)NC(=O)[C@H](CC(=O)O)NC(=O)[C@@H](NC(=O)[C@H](CCSC)NC(C)=O)CSSC[C@@H](C(=O)NCC(=O)N[C@@H](CO)C(=O)NCC(=O)N[C@@H](CO)C(=O)N[C@@H](CC(=O)O)C(=O)N[C@@H](Cc2ccc(O)cc2)C(=O)N[C@@H](CCCCN)C(=O)N[C@@H](CC(=O)O)C(=O)N[C@@H](CC(=O)O)C(=O)N[C@@H](CC(=O)O)C(=O)N[C@@H](CC(=O)O)C(=O)N[C@@H](CCCCN)C(N)=O)NC(=O)[C@H](CCC(=O)O)NC(=O)[C@H](CCCCN)NC(=O)[C@H](CCC(N)=O)NC1=O (Ac-MCDLYTVLWYKIQKECGSGSDYKDDDDK-NH2; disulfide 2-16) | 0.019 | 0.021 | > 10 | –
7 | CC[C@H](C)[C@@H]1NC(=O)[C@H](CO)NC(=O)[C@H]([C@@H](C)CC)NC(=O)[C@H](CC(C)C)NC(=O)[C@@H](NC(=O)[C@H](CCSC)NC(C)=O)CSSC[C@@H](C(=O)NCC(=O)N[C@@H](CO)C(=O)NCC(=O)N[C@@H](CO)C(=O)N[C@@H](CC(=O)O)C(=O)N[C@@H](Cc2ccc(O)cc2)C(=O)N[C@@H](CCCCN)C(=O)N[C@@H](CC(=O)O)C(=O)N[C@@H](CC(=O)O)C(=O)N[C@@H](CC(=O)O)C(=O)N[C@@H](CC(=O)O)C(=O)N[C@@H](CCCCN)C(N)=O)NC(=O)[C@H](Cc2c[nH]cn2)NC(=O)[C@H](CCCCN)NC(=O)[C@H](CC(C)C)NC(=O)[C@H](C(C)C)NC(=O)[C@H](CCCCN)NC(=O)[C@H](Cc2ccc(O)cc2)NC1=O (Ac-MCLISIYKVLKHCGSGSDYKDDDDK-NH2; disulfide 2-13) | – | > 10 | > 10 | > 10
